Experimental data as given in publication PMC12336439 (Archiv Der Pharmazie, 2025).
“And” between values parts separate entries of the source, which are not always exact repeats. Equal entries are not always repeated. Where two headings read alike, the source gives them in different places.

Experiments:
[1] = biological target: T1, USP7 (Homo sapiens, UniProt Q93009); assay: Differential scanning fluorimetry (DSF), melting temperature shift of USP7; format: binding; settings: 8 µM protein, 250 µM compound (1:31.25)
T1 construct: USP7 catalytic domain (USP7CD) (208‐560); made in house
T1 sequence (Q93009 with tags, fused parts or gaps): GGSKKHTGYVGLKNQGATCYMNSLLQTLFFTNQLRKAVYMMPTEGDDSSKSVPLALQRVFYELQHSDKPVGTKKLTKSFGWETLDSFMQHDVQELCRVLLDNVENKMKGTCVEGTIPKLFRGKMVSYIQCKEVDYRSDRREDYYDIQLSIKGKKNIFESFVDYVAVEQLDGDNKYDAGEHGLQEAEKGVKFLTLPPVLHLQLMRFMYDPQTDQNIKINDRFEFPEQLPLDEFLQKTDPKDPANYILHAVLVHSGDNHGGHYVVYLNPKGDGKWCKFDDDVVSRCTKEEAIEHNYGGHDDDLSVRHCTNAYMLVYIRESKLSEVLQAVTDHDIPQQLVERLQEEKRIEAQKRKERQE
Text: The influence of the synthesized compounds on the melting temperature (T m) of USP7 and its mutant USP7asoc (active site only cysteine) was investigated by DSF. USP7asoc only retains the catalytic Cys223 while all the other six cysteines are mutated to serine. DSF was selected for initial assessment since it is an efficient and rapid primary screening method readily available to our lab.
An important consideration when assessing covalent inhibitors is the time dependence of covalent target occupancy and thus potency, which is determined by the reaction kinetics of the covalent binding event. To allow for drawing conclusions on compounds with slower reaction kinetics, incubation times of 30 min, 4 h, and 24 h at 20°C were chosen for the DSF screen with USP7 (Table 1 and Figures 2 and 3). The threshold at which compounds were considered (de‐)stabilizers was defined at 0.5°C. In parallel, the intrinsic reactivity of a set of representative compounds was evaluated in a glutathione reactivity assay. […] Data obtained from the GSH reactivity studies are shown in Supporting Information S2: Table S2.1 and Figures S2.1–2.3.
The melting temperatures of USP7 and USP7asoc in the presence or absence of fragments were determined by DSF on a Qiagen Rotor‐Q Model‐5‐Plex HRM real‐time PCR instrument (Qiagen, Hilden, Germany). SYPRO Orange (Life Technologies Corporation, Eugene, OR, USA) was used as a fluorescent dye at a final concentration of 5x. The protein concentration was 8 µM, and the final compound concentration was 250 µM, corresponding to a protein‐to‐compound ratio of 1:31.25. All compounds were dissolved in dimethyl sulfoxide (DMSO) and the proteins in Tris buffer (25 mM Tris pH 8.0, 150 mM NaCl, 5 mM TCEP, 5% (v/v) DMSO). All measurements were performed after 30 min, 4 h, and 24 h of incubation and at least in triplicate. DSF experiments were carried out with a constant heating rate of 270°C/h. The temperature was ramped from 28°C to 60°C–70°C with excitation and emission filters set at 470 nm and 610 nm, respectively. The melting temperatures (T m) of USP7 and USP7asoc were determined from the maxima of the first derivatives of the melting curves in OriginPro2020 (OriginLab, Northampton, MA, USA). The ∆T m was calculated by subtraction of the T m of the protein sample with pure DMSO from the T m of the protein sample mixed with compound. Error propagation was used to average multiple runs for a compound. A compound was considered to be a hit if the shift in the ∆T m was at least 0.50°C [55].

[2] = biological target: T2, USP7cd (USP7 catalytic domain) (Homo sapiens, UniProt Q93009); assay: Ub-AMC enzyme activity assay, IC50 determination; format: biochemical; settings: 10 nM USP7cd, 500 nM Ub-AMC, 24 h pre-incubation at 20°C
T2 construct: USP7 catalytic domain (USP7CD) (208‐560); made in house
T2 sequence (Q93009 with tags, fused parts or gaps): as above
Experimental: Therefore, USP7 was incubated for 24 h with ten different compound concentrations, and IC50 values were then obtained with a fluorescent DUB substrate (Ub‐AMC) (Figure 9A–F). The pre‐incubation times were chosen to account for the slow covalent binding kinetics observed in the previous experiments.
The cleavage activity of USP7cd in the presence or absence of inhibitors was measured using Ubiquitin‐Aminomethylcoumarin (Ub‐AMC) (Enzo Life Sciences GmbH, Lörrach, Germany) as a fluorogenic substrate. The fluorescence was monitored using the CLARIOstar plate reader (BMG Labtech GmbH, Ortenberg, Germany) at 25°C at 360 nm excitation and 460 nm emission wavelengths. […] Each measurement was performed at least twice in duplicate. […] Ub‐AMC was added to a final concentration of 500 nM, and the fluorescence was measured after 1 h. The normalized dose‐response semi‐logarithmic curves were fitted using OriginPro2021 and the four‐parameter logistic function.
Different concentrations of compounds were pre-incubated with USP7 for 24 h at 20 °C in a rotating shaker in 25 mM Tris pH 8.0, 150mM NaCl, 5 mM TCEP supplemented with 0.2 mg/mL bovine serum albumin (BSA). Fluorescence was measured after 1 h of the addition of Ub-AMC. The dose response semi-logarithmic curves were fitted using OriginPro2021 and the four-parameter logistic function.

[3] = supplement table, read-out: Biological Activity (IC50)

∆T m ± SD USP7 ([1]; 30 min incubation at 20°C) | ∆T m ± SD USP7 ([1]; 4 h incubation at 20°C) | IC50 ([2]; read-out: IC50 USP7cd) | IC50 [2, 3] [µM] | ∆T m ± SD USP7 ([1]; 24 h incubation at 20°C) | SMILES
–0.45 ± 0.12 °C | –0.45 ± 0 °C | 36.2 µM and 36 µM | 36.2 ± 2.21 |  | CCn1cc(-c2cccc3cnc(Nc4nc(F)ccc4[N+](=O)[O-])cc23)cn1 [7c, 5‐(1‐Ethyl‐1H‐pyrazol‐4‐yl)‐N‐(6‐fluoro‐3‐nitropyridin‐2‐yl)isoquinolin‐3‐amine]
–0.10 ± 0.09 °C | 0.00 ± 0 °C | 56.6 µM and 57 µM | 56.6 ± 6.11 | 0.00 ± 0 °C | Cn1ccc(-c2cccc3cnc(Nc4nc(F)ccc4[N+](=O)[O-])cc23)c1 [7b, N‐(6‐Fluoro‐3‐nitropyridin‐2‐yl)‐5‐(1‐methyl‐1H‐pyrrol‐3‐yl)isoquinolin‐3‐amine]
–0.13 ± 0.09 °C | –0.40 ± 0.08 °C | > 1000 µM |  | –0.45 ± 0.09 °C | O=[N+]([O-])c1ccc(F)nc1Nc1cc2c(-c3ccc(-c4ccncc4)cc3)cccc2cn1 [7i, N‐(6‐Fluoro‐3‐nitropyridin‐2‐yl)‐5‐[4‐(pyridin‐4‐yl)phenyl]isoquinolin‐3‐amine]
–0.23 ± 0.06 °C | 0.02 ± 0.03 °C | 48.4 µM and 48 µM | 48.3 ± 5.68 |  | O=[N+]([O-])c1ccc(F)nc1Nc1cc2c(-c3cnn(C4CC4)c3)cccc2cn1 [7e, 5‐(1‐Cyclopropyl‐1H‐pyrazol‐4‐yl)‐N‐(6‐fluoro‐3‐nitropyridin‐2‐yl)isoquinolin‐3‐amine]
–0.30 ± 0.06 °C | –0.18 ± 0.03 °C | 26.8 µM and 27 µM | 26.8 ± 7.54 |  | CCCn1cc(-c2cccc3cnc(Nc4nc(F)ccc4[N+](=O)[O-])cc23)cn1 [7d, N‐(6‐Fluoro‐3‐nitropyridin‐2‐yl)‐5‐(1‐propyl‐1H‐pyrazol‐4‐yl)isoquinolin‐3‐amine]
